According to patent US20250325560A1, “METHODS FOR IMPROVING MUSCLE MASS, STRENGTH, OR FUNCTION WITH A COMBINATION OF TESTOSTERONE AND GROWTH HORMONE” (University of Rochester, priority 2022, published 2025):

Assays:
[1] = test system: FSHD patients; assay: Safety and tolerability monitoring in clinical study; format: in vivo, human; conditions: intramuscular injection into the gluteal muscle, when properly given
Text: Safety outcome measures included (1) Changes from baseline in laboratory test results, vital signs, and EKG results, (2) Occurrence of serious adverse events, and (3) Occurrence of non-serious adverse events. Exploratory efficacy outcome measures included the following: • 1. Composite Quantitative Muscle Testing (QMT) score • 2. Composite Manual Muscle Testing (MMT) score • 3. FSHD Clinical Outcome Measure (FSHD-COM), total and individual test scores • 4. FSHD-Health Index (FSHD-HI), disease-specific patient-reported outcome measure • 5. Forced Vital Capacity (FVC) • 6. Epworth Sleepiness Scale • 7. Fatigue Severity Scale • 8. Dual Energy X-Ray Absorptiometry (DEXA) Lean Body Mass (total and regional) • 9. PROMIS-57 • 10. Individualized Neuromuscular Quality of Life Questionnaire (INQoL) • 11. Beck Depression Inventory (BDI) • 12. Six minute walk distance
For safety assessments and adverse event assessments, various clinical safety Laboratory tests were carried out. For treatment-specific assessments, the subjects were monitored for the following treatment-related events: • peripheral edema • carpal tunnel syndrome • gynecomastia • insulin resistance • arthralgia • increased erythropoiesis • reduced HDL cholesterol • elevated prostate specific antigen • elevated blood pressure […]

[2] = test system: adult muscular dystrophy population; conditions: heterogeneous adult muscular dystrophy group with normal baseline testosterone; after 3 months of treatment; cited from earlier work
[3] = test system: patients with myotonic dystrophy; conditions: 40 patients with myotonic dystrophy; cited from earlier work

Row | SMILES | Tolerability of intramuscular injections [1] | Safety and body composition effects of testosterone in isolation [2] | Safety and efficacy of testosterone in isolation [3]
1 | CCCCCCC(=O)O[C@H]1CC[C@H]2[C@@H]3CCC4=CC(=O)CC[C@]4(C)[C@H]3CC[C@]12C [testosterone enanthate, Testosterone enanthate] | well tolerated | – | –
2 | C[C@]12CC[C@H]3[C@@H](CCC4=CC(=O)CC[C@@]43C)[C@@H]1CC[C@@H]2O [testosterone, 17-β-hydroxyandrost-4-en-3-one] | – | safe and increase lean body mass, reduce body fat, and improve basal metabolic rate | safe, tolerable, and able to improve both creatinine excretion and lean body mass while not statistically improving overall strength
